Laboratory results from patent US12533357B2, “Treatment for acute myeloid leukemia or myelodysplastic syndrome” (UNIVERSITY HEALTH NETWORK, priority 2019, dated 2026).

What was measured:
[1] = Phase 1 dose-escalation study (NCT03187288); format: in vivo, human
Procedure: This study (NCT number: NCT03187288) is a multi-center, phase 1, dose-escalation trial designed to assess the safety, tolerability, pharmacokinetics, and clinical benefit of treatment with Compound (I) fumarate administered orally over a range of doses in patients with acute myeloid leukemia (AML) or myelodysplastic syndrome (MDS) that is relapsed or refractory to current treatment or for which no curative therapy exists.
Results: 9 patients with relapsed or refractory AML were treated with escalating doses of Compound (I) (64 mg to 128 mg) administered orally once daily. Among them, 3 patients were dosed at 64 mg, 4 patients were dosed at 96 mg, and 2 patients were dosed at 128 mg. Of six patients evaluable for response, two (33%) achieved complete remission (CR), and 3 patients (50%) had stable disease (with one patient having a 78% reduction in marrow blast count). The dose limiting toxicity (DLT) was determined to be colitis at the 128 mg dose level. […] However, only 4 patients were enrolled at the 96 mg dose level before the study was paused for enrollment and was amended.

[2] = system: complex karyotype (CK) AML cell lines; experiment: In vitro combination with standard of care agents; format: cell-based; details: in combination with Venetoclax (Bcl2 inhibitor) and 5-Azacytidine; multiple CK AML cell lines in vitro
cancer cells = experiment: Compound (I) treatment of cancer cells (FIG. 1); format: cell-based
Procedure: (§1) Cells were seeded in triplicate at 10,000 per 80 uL, into 96-well plates 24 hours before compound overlay and cultured at 37° C. and 5% CO2. Compound (I) was prepared as a 10 mM stock in 100% DMSO and diluted with RPMI 1640 cell growth medium containing 10% FBS such that the final concentrations ranged from 50 pM to 15 uM. Aliquots (20 uL) from each concentration were overlaid to 80 uL of pre-seeded cells to achieve final concentrations of 10 pM to 3 uM. After 3 days, cell viability in each well was assessed by alamarBlue assay according to the manufacturer's instruction (ThermoFisher Scientific). Absorbance was read at 570 nm using a SpectraPlus microplate reader (Molecular Devices Corporation). alamarBlue absorbance values were adjusted by subtracting the average of the baseline readings from untreated cells assessed one day after cell seeding. The percentage (%) of relative inhibition of cell viability was calculated by comparing to DMSO-treated cells. IC50s were calculated using GraphPad PRISM software (GraphPad Software Inc.).

[3] = system: MOLT-4 acute lymphoblastic leukemia xenograft; experiment: MOLT-4 xenograft tumor growth in SCID mice; format: in vivo; details: for complete regressions: 21 days of dosing; for tumors with regression observed / average tumor regression: day 13, fumarate
Procedure: The human acute lymphoblastic leukemia cell line MOLT-4 was acquired from American Type Culture Collection (Manassas, VA, USA) and grown in RPMI medium containing 100 units/mL penicillin G sodium, 100 μg/mL streptomycin sulfate. The media was supplemented with 10% heat-inactivated fetal bovine serum, 2 mM L-glutamine, and 0.11% sodium pyruvate. The tumor cells were maintained in a humidified environment of 5% CO2 and 95% air at 37° C. Cells were verified to be free of mouse pathogens by IMPACT IV PCR analysis (IDEXX RADIL, Colombia, MO, USA) before injection.
Female SCID mice were purchased from the Ontario Cancer Institute and received and acclimated at the MaRS-TMDT Animal Resources Centre for 2 weeks prior to the start of the experiment. The mice were fed ad libitum autoclaved water and Rodent Lab Diet (Harlan Teklad LM-485) consisting of 19% crude protein, 5% crude fat, and 5% crude fiber. Mice were housed in microisolator cages and maintained in an environment with a 12-hour light cycle at 20-22° C. and 40-60% humidity. On the day of implantation, MOLT-4 cells were harvested and resuspended with serum free DMEM to a concentration of 1×10^8/mL and each mouse was injected subcutaneously with a volume of 0.1 mL containing 1×10^7 MOLT-4 cells in the right rear flank.
Animals were dosed Compound (I) via oral gavage in a volume of 10 mL/kg. The animals were dosed with a 2.25 mm×50 mm curved gavage needle affixed to a 1 mL syringe. Vincristine was dosed by IP injection once per week.
Toxicity was evaluated by body weight measurements and clinical observations. The mice were observed daily for overt signs of any adverse, treatment related side effects, and clinical signs of toxicity. Acceptable toxicity was set at a group mean body weight loss of less than 20% during the study and not more than one treatment related death in a group. Animals were monitored for body weights and tumor growth where tumor volumes were calculated using the formula: tumor volume=width^2×length/2.
The study evaluated Compound (I) fumarate administered by oral gavage for 21 days, either daily at 7.5 mg/kg or 2 days on/5 days off at 13.5 mg/kg, in comparison to the standard-of-care agent vincristine, dosed in 4 weekly intraperitoneal injections of 0.5 mg/kg, in the MOLT-4 […] xenograft model in SCID (severe combined immunodeficiency) mice. Xenografts were established by subcutaneously injecting 1×10^7 tumor cells into the right flank of female SCID mice. Treatment was initiated 9 days following implantation when tumor volumes reached a mean volume of approximately 250 mm^3.

NB4 = experiment: In vitro cytotoxicity (IC50) assay, alamarBlue; format: cell-based; details: NB4, AML M3
Procedure: as §1

OCI-AML2 = experiment: In vitro cytotoxicity (IC50) assay, alamarBlue; format: cell-based; details: OCI-AML2, AML M4
Procedure: as §1

K-562 = experiment: In vitro cytotoxicity (IC50) assay, alamarBlue; format: cell-based; details: K-562, CML
Procedure: as §1

REH = experiment: In vitro cytotoxicity (IC50) assay, alamarBlue; format: cell-based; details: B-ALL
Procedure: as §1

NALM-16 = experiment: In vitro cytotoxicity (IC50) assay, alamarBlue; format: cell-based; details: NALM-16, B-ALL
Procedure: as §1

DAUDI = experiment: In vitro cytotoxicity (IC50) assay, alamarBlue; format: cell-based; details: NHL B-Cell Burkitt
Procedure: as §1

OCI-AML4 = experiment: In vitro cytotoxicity (IC50) assay, alamarBlue; format: cell-based; details: OCI-AML4, AML M4
Procedure: as §1

OCI-LY18 = experiment: In vitro cytotoxicity (IC50) assay, alamarBlue; format: cell-based; details: OCI-LY18, NHL GCB-DLBCL
Procedure: as §1

RS4;11 = experiment: In vitro cytotoxicity (IC50) assay, alamarBlue; format: cell-based; details: RS4;11, B-ALL
Procedure: as §1

[4] = Day 25, 2-on/5-off arm 13.5 mg/kg
[5] = Homo sapiens, 72 h, 3 days, read-out: Compound (I) IC50

SMILES: COc1ccc2c(c1)[C@]1(C[C@H]1c1ccc3c(/C=C/c4ccc(CN5C[C@@H](C)O[C@@H](C)C5)cc4)n[nH]c3c1)C(=O)N2 [Compound (I), (1R,2S)-2-(3-((E)-4-(((2S,6R)-2,6-dimethylmorpholino)methyl)styryl)-1H-indazol-6-yl)-5′-methoxyspiro[cyclopropane-1,3′-indolin]-2′-one]
- dose limiting toxicity (DLT) ([1]; 128 mg dose level, orally once daily): colitis
- patients with stable disease ([1]; 3 of six evaluable patients, 64 mg to 128 mg orally once daily): 50%
- effect on outcome of a patient ([1]; a patient with CK AML): positively affected the outcome
- reduction in marrow blast count ([1]; one patient with stable disease): 78%
- single agent clinical activity ([1]; patients with poor risk AML): has activity
- patients achieving complete remission (CR) ([1]; two of six evaluable patients, 64 mg to 128 mg orally once daily): 33%
- combination activity [2]: additive/synergistic activity
- effect of treatment on cancer cells (cancer cells): aberrant mitoses leading to death or arrest
- average regression [3, 4]: 96%
- complete regressions [3, 4]: 6 of 8
- complete regressions ([3]; Day 25, daily dosing arm 7.5 mg/kg): 8 of 8
- overall efficacy in MOLT-4 xenograft model ([3]; SCID mice): very efficacious and potentially curative
- tumors with regression observed ([3]; oral 13.5 mg/kg 2-on/5-off): 7 of 8
- average tumor regression ([3]; oral 13.5 mg/kg 2-on/5-off, p=6.5*10^-6): 28%
- tumors with regression observed ([3]; oral daily 7.5 mg/kg): 7 of 8
- average tumor regression ([3]; oral daily 7.5 mg/kg, p=2.5*10^-6): 77%
- Response to Compound (I) (NB4): mitotic defects +
- Response to Compound (I) (OCI-AML2): mitotic defects +
- Response to Compound (I) (K-562): mitotic defects +
- Response to Compound (I) (REH): death
- IC50 (REH; [5]): 5.1 nM
- Response to Compound (I) (NALM-16): mitotic defects +
- IC50 (DAUDI; [5]): 0.2 nM
- Response to Compound (I) (DAUDI): death
- Response to Compound (I) (OCI-AML4): mitotic defects +
- Response to Compound (I) (OCI-LY18): mitotic defects +
- Response to Compound (I) (RS4;11): mitotic defects +
